Measured values published in patent publication US11419806B2, “Prebiotic oral care methods using a saccharide” (Colgate-Palmolive Company, priority 2013, dated 2022).

Legend:
Assay in all cases: Twenty-four hour optical density growth in BHI
Type in all cases: cell-based
Streptococcus gordonii = details: S gordonii
Procedure: (§1) The extent of growth of the tested bacteria in response to selected saccharides (myo-inositol, D-lactitol, D-turanose and N-acetyl-D-mannosamine) was investigated by setting up growth curves in a nutritionally rich medium (brain heart infusion broth (BHI), Oxoid), over 24 hours. Late exponential growth phase liquid cultures were prepared by transferring the respective bacterium from blood agar plates to BHI and overnight incubation at 37° C. in an anaerobic atmosphere for A. viscosus, V. parvula, F. nucleatum, P. gingivalis, P. intermedia, T. forsythia, A. naeslundii, and C. sputigena, and in a 5% CO2 environment for S. salivarius, S. sanguinis, S. mitis, A. actinomycetemcomitans, S. mutans, S. sobrinus and S. gordonii. Overnight cultures were transferred to BHI and adjusted to a concentration of 1×10^7 CFU/ml (colony forming units per ml) by measuring the optical density at 600 nm (OD600) (BioRad SmartSpec 3000). For each strain, 200 μl of the bacterial suspension was added to a 96-well plate containing 20 μl of the respective saccharides. Final concentrations of the saccharides were set to 5, 10, 20 and 25 μmol/ml. […] Plates were incubated as previously described.
(§2) For each combination of bacterium/saccharide, and for each of their respective controls (i.e. the particular bacterium in the nutritionally rich medium with no saccharide), the optical density was measured at 630 nm (OD630) at 0 h and 24 h (Thermo Scientific Multiskan Ascent). Additionally, the OD630 for combinations of bacterium/saccharides grown in a 5% CO2 environment were also measured every hour between 0 h and 9 h.
(§3) The experiment was carried out on three different days (thus providing 3 biological replicas) and on each day the experiment was carried out in quadruple (thus providing 4 technical replicas) for each combination of bacterium with saccharide and for each control. For each day and for each combination, the average (mean) of the values obtained (as detailed above) for the four technical replicas was calculated to provide a single value for each combination on each day. The values shown in Tables 5a,b to 6a,b, below, are the average (mean) of the three single values obtained for each combination of bacterium with saccharide.

Porphyromonas gingivalis = details: P gingivalis
Procedure: as §1, §2, §3

S. sanguinis = system: S. sanguinis
Procedure: as §1, §2, §3

Prevotella intermedia = details: P intermedia
Procedure: as §1, §2, §3

Streptococcus salivarius = details: S salivarius
Procedure: as §1, §2, §3

Veillonella parvula = details: V parvula
Procedure: as §1, §2, §3

Actinomyces naeslundii = details: A naeslundii
Procedure: as §1, §2, §3

Streptococcus sobrinus = details: S sobrinus
Procedure: as §1, §2, §3

Streptococcus mitis = details: S mitis
Procedure: as §1, §2, §3

Streptococcus mutans = details: S mutans
Procedure: as §1, §2, §3

[1] = system: Aggregatibacter actinomycetemcomitans; details: A actinomycetemcomitans
Procedure: as §1, §2, §3

Capnocytophaga sputigena = details: C sputigena
Procedure: as §1, §2, §3

Tannerella forsythia = details: T forsythia
Procedure: as §1, §2, §3

Actinomyces viscosus = details: A viscosus
Procedure: as §1, §2, §3

Fusobacterium nucleatum = details: F nucleatum
Procedure: as §1, §2, §3

## O[C@H]1[C@H](O)[C@@H](O)[C@H](O)[C@@H](O)[C@H]1O [Myo-Inositol, (1R,2R,3S,4S,5R,6S)-cyclohexane-1,2,3,4,5,6-hexol]
Streptococcus gordonii; 5 μmol/ml
  extent of growth: maximal OD630 over 24 hr divided by maximal OD of control (control = 1): 0.9888
Streptococcus gordonii; 10 μmol/ml
  extent of growth: maximal OD630 over 24 hr divided by maximal OD of control (control = 1): 0.9732
Streptococcus gordonii; 20 μmol/ml
  extent of growth: maximal OD630 over 24 hr divided by maximal OD of control (control = 1): 0.9751
Streptococcus gordonii; 25 μmol/ml
  extent of growth: maximal OD630 over 24 hr divided by maximal OD of control (control = 1): 0.9954
Porphyromonas gingivalis; 5 μmol/ml
  extent of growth: maximal OD630 over 24 hr divided by maximal OD of control (control = 1): 1.0200
Porphyromonas gingivalis; 10 μmol/ml
  extent of growth: maximal OD630 over 24 hr divided by maximal OD of control (control = 1): 1.0126
Porphyromonas gingivalis; 20 μmol/ml
  extent of growth: maximal OD630 over 24 hr divided by maximal OD of control (control = 1): 0.9758
Porphyromonas gingivalis; 25 μmol/ml
  extent of growth: maximal OD630 over 24 hr divided by maximal OD of control (control = 1): 0.9855
S. sanguinis; 5 μmol/ml
  extent of growth: maximal OD630 over 24 hr divided by maximal OD of control (control = 1): 0.9429
S. sanguinis; 10 μmol/ml
  extent of growth: maximal OD630 over 24 hr divided by maximal OD of control (control = 1): 0.9536
S. sanguinis; 20 μmol/ml
  extent of growth: maximal OD630 over 24 hr divided by maximal OD of control (control = 1): 0.8540
S. sanguinis; 25 μmol/ml
  extent of growth: maximal OD630 over 24 hr divided by maximal OD of control (control = 1): 0.9077
Prevotella intermedia; 5 μmol/ml
  extent of growth: maximal OD630 over 24 hr divided by maximal OD of control (control = 1): 0.9519
Prevotella intermedia; 10 μmol/ml
  extent of growth: maximal OD630 over 24 hr divided by maximal OD of control (control = 1): 0.9564
Prevotella intermedia; 20 μmol/ml
  extent of growth: maximal OD630 over 24 hr divided by maximal OD of control (control = 1): 0.9230
Prevotella intermedia; 25 μmol/ml
  extent of growth: maximal OD630 over 24 hr divided by maximal OD of control (control = 1): 0.9158
Streptococcus salivarius; 5 μmol/ml
  extent of growth: maximal OD630 over 24 hr divided by maximal OD of control (control = 1): 0.9359
Streptococcus salivarius; 10 μmol/ml
  extent of growth: maximal OD630 over 24 hr divided by maximal OD of control (control = 1): 0.9395
Streptococcus salivarius; 20 μmol/ml
  extent of growth: maximal OD630 over 24 hr divided by maximal OD of control (control = 1): 0.9136
Streptococcus salivarius; 25 μmol/ml
  extent of growth: maximal OD630 over 24 hr divided by maximal OD of control (control = 1): 0.8905
Veillonella parvula; 5 μmol/ml
  extent of growth: maximal OD630 over 24 hr divided by maximal OD of control (control = 1): 0.9050
Veillonella parvula; 10 μmol/ml
  extent of growth: maximal OD630 over 24 hr divided by maximal OD of control (control = 1): 0.9049
Veillonella parvula; 20 μmol/ml
  extent of growth: maximal OD630 over 24 hr divided by maximal OD of control (control = 1): 0.8987
Veillonella parvula; 25 μmol/ml
  extent of growth: maximal OD630 over 24 hr divided by maximal OD of control (control = 1): 0.8933
Actinomyces naeslundii; 5 μmol/ml
  extent of growth: maximal OD630 over 24 hr divided by maximal OD of control (control = 1): 1.0172
Actinomyces naeslundii; 10 μmol/ml
  extent of growth: maximal OD630 over 24 hr divided by maximal OD of control (control = 1): 1.0190
Actinomyces naeslundii; 20 μmol/ml
  extent of growth: maximal OD630 over 24 hr divided by maximal OD of control (control = 1): 1.0051
Actinomyces naeslundii; 25 μmol/ml
  extent of growth: maximal OD630 over 24 hr divided by maximal OD of control (control = 1): 1.0000
Streptococcus sobrinus; 5 μmol/ml
  extent of growth: maximal OD630 over 24 hr divided by maximal OD of control (control = 1): 0.9301
Streptococcus sobrinus; 10 μmol/ml
  extent of growth: maximal OD630 over 24 hr divided by maximal OD of control (control = 1): 0.9360
Streptococcus sobrinus; 20 μmol/ml
  extent of growth: maximal OD630 over 24 hr divided by maximal OD of control (control = 1): 0.9087
Streptococcus sobrinus; 25 μmol/ml
  extent of growth: maximal OD630 over 24 hr divided by maximal OD of control (control = 1): 0.9224
Streptococcus mitis; 5 μmol/ml
  extent of growth: maximal OD630 over 24 hr divided by maximal OD of control (control = 1): 0.9921
Streptococcus mitis; 10 μmol/ml
  extent of growth: maximal OD630 over 24 hr divided by maximal OD of control (control = 1): 0.9622
Streptococcus mitis; 20 μmol/ml
  extent of growth: maximal OD630 over 24 hr divided by maximal OD of control (control = 1): 0.8975
Streptococcus mitis; 25 μmol/ml
  extent of growth: maximal OD630 over 24 hr divided by maximal OD of control (control = 1): 0.8423
Streptococcus mutans; 5 μmol/ml
  extent of growth: maximal OD630 over 24 hr divided by maximal OD of control (control = 1): 1.1065
Streptococcus mutans; 10 μmol/ml
  extent of growth: maximal OD630 over 24 hr divided by maximal OD of control (control = 1): 1.0553
Streptococcus mutans; 20 μmol/ml
  extent of growth: maximal OD630 over 24 hr divided by maximal OD of control (control = 1): 0.9645
Streptococcus mutans; 25 μmol/ml
  extent of growth: maximal OD630 over 24 hr divided by maximal OD of control (control = 1): 0.9449
[1]; 5 μmol/ml
  extent of growth: maximal OD630 over 24 hr divided by maximal OD of control (control = 1): 0.6977
[1]; 10 μmol/ml
  extent of growth: maximal OD630 over 24 hr divided by maximal OD of control (control = 1): 0.7107
[1]; 20 μmol/ml
  extent of growth: maximal OD630 over 24 hr divided by maximal OD of control (control = 1): 0.7396
[1]; 25 μmol/ml
  extent of growth: maximal OD630 over 24 hr divided by maximal OD of control (control = 1): 0.7361
Capnocytophaga sputigena; 5 μmol/ml
  extent of growth: maximal OD630 over 24 hr divided by maximal OD of control (control = 1): 0.8701
Capnocytophaga sputigena; 10 μmol/ml
  extent of growth: maximal OD630 over 24 hr divided by maximal OD of control (control = 1): 0.8749
Capnocytophaga sputigena; 20 μmol/ml
  extent of growth: maximal OD630 over 24 hr divided by maximal OD of control (control = 1): 0.8545
Capnocytophaga sputigena; 25 μmol/ml
  extent of growth: maximal OD630 over 24 hr divided by maximal OD of control (control = 1): 0.8789
Tannerella forsythia; 5 μmol/ml
  extent of growth: maximal OD630 over 24 hr divided by maximal OD of control (control = 1): 0.9323
Tannerella forsythia; 10 μmol/ml
  extent of growth: maximal OD630 over 24 hr divided by maximal OD of control (control = 1): 0.9359
Tannerella forsythia; 20 μmol/ml
  extent of growth: maximal OD630 over 24 hr divided by maximal OD of control (control = 1): 0.9286
Tannerella forsythia; 25 μmol/ml
  extent of growth: maximal OD630 over 24 hr divided by maximal OD of control (control = 1): 0.9460
Actinomyces viscosus; 5 μmol/ml
  extent of growth: maximal OD630 over 24 hr divided by maximal OD of control (control = 1): 0.8442
Actinomyces viscosus; 10 μmol/ml
  extent of growth: maximal OD630 over 24 hr divided by maximal OD of control (control = 1): 0.8574
Actinomyces viscosus; 20 μmol/ml
  extent of growth: maximal OD630 over 24 hr divided by maximal OD of control (control = 1): 0.8079
Actinomyces viscosus; 25 μmol/ml
  extent of growth: maximal OD630 over 24 hr divided by maximal OD of control (control = 1): 0.7647
Fusobacterium nucleatum; 5 μmol/ml
  extent of growth: maximal OD630 over 24 hr divided by maximal OD of control (control = 1): 0.9430
Fusobacterium nucleatum; 10 μmol/ml
  extent of growth: maximal OD630 over 24 hr divided by maximal OD of control (control = 1): 0.9489
Fusobacterium nucleatum; 20 μmol/ml
  extent of growth: maximal OD630 over 24 hr divided by maximal OD of control (control = 1): 0.9512
Fusobacterium nucleatum; 25 μmol/ml
  extent of growth: maximal OD630 over 24 hr divided by maximal OD of control (control = 1): 0.9518
